The values that follow are results of earlier work, collected in patent US11945788B2, “Process for preparing pitolisant hydrochloride and solid-state forms thereof” (Nuray Chemicals Private Limited, priority 2021, dated 2024).

Turning to `Cl.Clc1ccc(CCCOCCCN2CCCCC2)cc1` [Pitolisant hydrochloride, 1-{3-[3-(4-chlorophenyl)propoxy]propyl}piperidine hydrochloride], where the note is “solvent: cyclohexane”, the solubility in cyclohexane entry was “practically insoluble”. In addition, the solubility in ethanol entry (solvent: ethanol) was “soluble”. Moreover, the “solubility in methylene chloride” value (solvent: methylene chloride) is given as “soluble”. Also, the solubility in water result (solvent: water) was “soluble”.
